According to a melting point compilation (Tetko et al.; mined from patent text by program, amines drawn as free bases though some values may be those of a salt):

| melting point [°C] | Structure (SMILES) |
| --- | --- |
| 139 | COc1ccc(CC(C)NC(C)=O)cc1OCc1ccccc1 (stereo unspecified) |
| 100 to 102 | COc1cnnc(Oc2ccnc(OC(C)C(F)(F)F)c2)c1 (stereo unspecified) |
| 112 to 114 | COc1ccc(-c2cccc(NC(C)=O)c2)cc1OC1CCCC1 |
| 157 to 158 | O=S(=O)(NCCCCOc1ccc(-n2ccnc2)cc1)c1ccc2ccccc2c1 |
| 178 | O=C(c1ccc(F)cc1)c1cccc(C(=O)c2ccc(F)cc2)c1 |
| 155 to 156 | O=C(NC1CCN(CCCC(O)c2ccccc2)CC1)c1ccccc1 (stereo unspecified) |
| 130 to 133 | Nc1nc2ccc(NC(=O)[C@@H]3CCCN3C(=O)[C@@H](Cc3ccccc3)NS(=O)(=O)Cc3ccccc3)cc2s1 |
| 81.5 to 83 | CC1Cc2cccc(-c3ccccc3)c2C1=O (stereo unspecified) |
| 156 to 157 | CC1(C)CCC(C)(C)c2c1ccc(CS(=O)(=O)c1ccccc1)c2N |
| 147 to 148 | Cc1ccc2nc(CO)cc(Cl)c2c1 |
| 121 to 123 | O=C1C2Cc3cc4ccccc4n3CC2CN1Cc1ccccc1 (stereo unspecified) |
| 152 to 154 | CCCc1nc2c(N)nc3cc(OCCCn4cccc4)ccc3c2s1 |
| 160 to 161 | NC(=O)C1(CCCNC=O)c2ccccc2-c2ccccc21 |
| 42 to 43 | COc1ccccc1N1CCN(CC(O)COc2ccc(CC(C)=O)cc2)CC1 (stereo unspecified) |
| 63 to 64 | COc1ccc(-c2nc(OCC(F)(F)F)nn2-c2ccc(OC)nc2)cc1 |
| 186 to 189 | O=C(Cn1c(-c2ccc3c(c2)OCO3)nc2ccccc21)c1ccccc1 |
| > 260 | NCc1ccc(-c2ccccc2-c2nnn[nH]2)cc1 |
| 118 | Clc1ccc(-c2ccc(C(Cl)Cn3cncn3)cc2)cc1 (stereo unspecified) |
| 144 to 146 | CN(C)C=C(C#N)C(=O)NCc1ccccc1Cl |
| 85 | c1ccc(OCCSCc2nnc(-c3ccc(OCCCN4CCSCC4)cc3)o2)cc1 |
| 184 | COc1cc(CC(=O)Nc2ccc(C3CN(C(=O)CCC(=O)O)CC3C(=O)O)cc2)ccc1NC(=O)Nc1ccccc1C (stereo unspecified) |
| 276 to 277 | Cc1cc(CNC(=O)c2cc(-n3cnn(Cc4ccc(F)cc4)c3=O)n[nH]2)no1 |
| 167 to 168 | O=c1ccn(-c2cccc(C(F)(F)F)c2)nc1-c1ccsc1-c1ccccc1 |
| 168 to 173 | CCCCc1ncc(C(=O)OCC)c(=O)n1Cc1ccc(-c2ccccc2-c2nnn[nH]2)cc1 |
| 103 to 105 | Oc1ccc(CCN(Cc2ccccc2)CC(O)COc2ccccc2)cc1 (stereo unspecified) |

| melting point [°C] | Structure (SMILES) |
| --- | --- |
| 154 to 155 | C=C1C(=C)C2OC1c1cc3cccc(OC)c3cc12 (stereo unspecified) |
| 124 to 126 | CCN(C)c1cccc(Cl)c1COc1cccn2c(Br)c(C)nc12 |
| 60 | CCN1CNS(=O)(=O)c2cc(Oc3cccc(C(C)O)c3)ccc21 (stereo unspecified) |
| 224 to 225 | Cc1cc2ccccc2c(Oc2ccc(/C=C/C(=O)O)cc2)c1-c1ccccc1 |
| 185 to 187 | CCOCc1nc2c(N)nc3cc(-c4cccc(C(=O)N5CCOCC5)c4)cnc3c2n1CC(C)C |
| 238 to 240 | Clc1cccc2c1c(Cl)nc1c(-c3nc(C4CC4)no3)ncn12 |
| 153 to 154 | Cc1nc(N2CCN(Cc3ccc(C(F)(F)F)cc3)C2=O)sc1CO |
| 188 | Cn1c(CC(=O)O)ccc1C(=O)c1ccc(Br)cc1 |
| 154 to 155 | COc1ccc(-c2cnc(N)c(Sc3ccc(Cl)cc3)n2)cc1 |
| 79 to 82 | C=CCCCCc1ccc(C(=O)O)cc1 |
| 159 to 161 | CC1=Nc2ccccc2CC(c2ccncc2)N1C (stereo unspecified) |
| 148 to 151 | COc1ccc(NC(=O)c2ccc(F)c(F)c2)cc1N |
| 172 | O=C(O)c1ccc2ccccc2c1OCC(F)(F)F |
| 270 | Nc1nc2ccccc2n1-c1cccc(-n2c(N)nc3ccccc32)c1 |
| 148 | Cc1cccc(NC(=O)NCC(=O)N(CC(=O)OC(C)(C)C)c2ccccc2F)c1 |
| 63 to 64 | CCc1nc2c(-c3ccc(Cl)cc3Cl)nnc(C)c2n1C(CC)CC |
| 69 to 70 | CCCCN(Cc1ccccc1)C(=O)Nc1cccc(Cl)c1 |
| 157 | COc1ccc(-c2sc3cc(O)ccc3c2Oc2ccc(OCCN3CCCCC3)cc2)cc1 |
| 115 to 116 | CC(C)(C)OC(=O)NCc1cccc(OCCC2Oc3ccccc3N(Cc3ccccc3Cl)C2=O)c1 (stereo unspecified) |
| 182 to 184 | NC(=O)CCC(C(=O)O)N1C(=O)c2cccc([N+](=O)[O-])c2C1=O (stereo unspecified) |
| 177 to 178 | OCc1c2c(nn1-c1ccc(F)cc1)CCCCC2 |
| 148 | CNC(=O)c1cccc(NC(=O)COc2ccccc2C)c1 |
| 137 | COc1ccc(N2CCN(c3cccc(C)c3)CC2)nn1 |
| 178 to 179 | CC(C)c1nc(C(C)C)c(CSc2ccc(O)cc2)c(-c2ccc(F)cc2)c1CO |

Second part, the molecule before the results:

| Structure (SMILES) | melting point [°C] |
| --- | --- |
| C#CCc1ccc2onc3c2c1OCC=N3 | 104 to 106 |
| COc1nccc(F)c1NC(=O)OC(C)(C)C | 75 to 77 |
| CCC/C=C/C(=O)NC(=O)OC(C)(C)C | 71 to 72 |
| Cc1c(NC(=O)c2ccc(OC[C@@H]3CCCO3)cc2)ccc2cc(CNCC(C)(C)C)n(C)c12 | 201 |
| CN(C)C(=O)c1c([N+](=O)[O-])cccc1S(=O)(=O)N(C)CCO | 107 |
| O=C1C2=C(OCCO2)C(=O)c2cc(Cl)ccc21 | 209 to 210 |
| CCOC(=O)CN1C(=O)C(NC(=O)OCc2ccccc2)N=C(c2ccccc2)c2ccccc21 (stereo unspecified) | 65 to 66 |
| O=C(O)c1cn(C2CSC2)c2cc(F)c(F)cc2c1=O | 251 to 256 |
| Cc1nc(-c2ccc(N3CCOCC3)c([N+](=O)[O-])c2)sc1C(=O)O | 218 to 220 |
| CC(CN1CCCC1)Oc1ccccc1CC(=O)N1CC2C(C1)C(c1ccccc1)(c1ccccc1)CCS2=O (racemic) | 126 |
| CSC(=C[N+](=O)[O-])NCCSCc1ccccn1 | 95.5 to 96.5 |
| CC1CCN(CCCC(=O)c2ccc3oc4ccc(C(=O)CCCN5CCC(C)CC5)cc4c3c2)CC1 | 72 to 73 |
| O=Cc1cnn(Cc2ccccc2)c1-c1ccccc1 | 99 to 100 |
| COc1cc2c(Nc3ccc(Sc4nccn4C)c(Cl)c3)c(C#N)cnc2cc1N(C)CCCN(C)C | 196 to 201 |
| CCOC(C)OCC(C)C1CCC2C3CC=C4CC(O)CC(O)C4(C)C3CCC12C (stereo unspecified) | 124 to 126 |
| COc1cc2c(cc1OC)CCCCC(C(=O)O)=C2 | 200 to 201 |
| CCNC(=O)NCCC1CCc2ccc3nc(C)oc3c21 (stereo unspecified) | 136 to 138 |
| Cc1nc2ccc3c(c2nc1C)OC(CN1CC=C(c2c[nH]c4ccc(F)cc24)CC1)CO3 (stereo unspecified) | 138 to 141 |
| CCCCCCC/C=C/C(=O)Nc1ccccc1 | 54 to 55 |
| COc1ccc(-n2nc(C(C)(C)C)cc2NC(=O)c2nccc3cc(Oc4cc(NC(C)=O)ncn4)ccc23)cc1 | 156 |
| OCCc1cc(Br)ccc1O | 63 to 65 |
| O=[N+]([O-])c1ccc(Oc2ccc(C(F)(F)F)cc2Cl)cc1NCP(=O)(O)O | 148 to 150 |
| CCOCCN(SC(Cl)(Cl)Cl)C(=N)C(Cl)(Cl)Cl | 65 to 66 |
| O=C(c1c(F)cccc1F)N1COCN(c2ccc(S(=O)(=O)C(F)F)cc2F)C1=O | 210 to 213 |
| CC(C)(C)c1cccc(S(=O)(=O)n2c(C(F)c3ccc(C(=O)O)cc3)cc3cc(C(F)(F)F)ccc32)c1 (stereo unspecified) | 170 |
| CCCCCCC#Cc1csc(/C=C/C(=O)O)c1 | 81 |

| Structure (SMILES) | melting point [°C] |
| --- | --- |
| COC(=O)c1ccc([C@H]2CCN(C(=O)OC(C)(C)C)C[C@@H]2O)cc1 (racemic) | 146 |
| Cc1cc2nc(NC3=NCCN3)[nH]c2cc1C | 266 |
| CC(C)c1cc(Cl)cc(C(C)C)c1NC(=O)NS(=O)(=O)c1cccc(C2(C)OCCO2)c1 | 155 to 157 |
| Cc1cc(C2CCCC2)c(O)c(C2CCCC2)c1 | 78 |
| C=CCc1cc(CC(N)=O)ccc1OCC(O)CNCCC(=O)OCC (stereo unspecified) | 98 |
| N#CC1(CCNC(=O)C(Cl)Cl)CC1 | 97 to 100 |
| CCCCCCCCCCCCCCCC(=O)OC(CCCCCCCCCCCCCC)C(=O)N[C@H](C(=O)N[C@@H](CCC(=O)O)C(=O)O)C(C)C (stereo partly specified) | 101 to 103 |
| CC(=O)Nc1ncc(Sc2ccc(NS(C)(=O)=O)cc2)s1 | 236 to 239 |
| O=C(O)C1CC(O)CN1C(=O)c1ccc2c(c1)OCCO2 (stereo unspecified) | 142 |
| O=C1CCCN1C1=NC(CF)(CF)Oc2ccc([N+](=O)[O-])cc21 | 195 to 198 |
| CCCCCCCCCCCC(=O)Nc1ccc(O)c(C(=O)O)c1 | 201 to 205 |
| CCCCCCC(C)(C)c1cc(OCc2ccccc2)c(C2=C(C(C)(C)C#N)CCC(C)C2)c(OCc2ccccc2)c1 (stereo unspecified) | 65 to 66 |
| CC(=O)Nc1c([N+](=O)[O-])cc(Br)c2c1CCN(C)C2 | 190 to 192 |
| CC(C)(C)P1(=S)CCC1 | 120 to 121 |
| CCn1c(C)nc2c(C(=O)OC)c(C(=O)OC)ccc21 | 127 to 128 |
| Cc1cccc(OCC(=S)NCCN2CCCC2)c1C | 62 to 64 |
| COc1cccc(CCC(=O)C2C(=O)CCC2=O)c1O | 108 to 109 |
| OOC12C=CC=CC=CC=CC=CC1=CC=CO2 (stereo unspecified) | 104 to 106 |
| CC1C(=O)N2CCCC(C(=O)OC(C)(C)C)N2C1=O (stereo unspecified) | 127 to 128 |
| O=CN1CCN(C2=C(Cl)C(=O)c3nsnc3C2=O)CC1 | 191 to 194 |
| O=C(O)c1cn(-c2cccnc2)cn1 | 265 to 266 |
| Cc1cc(Oc2cccc(C(F)(F)F)c2)c(C)cc1N=CNC#N | 138 to 140 |
| NS(=O)(=O)c1ccc(NC(=O)c2cc(F)ccc2SSc2ccc(F)cc2C(=O)Nc2ccc(S(N)(=O)=O)cc2)cc1 | > 300 |
| CCCCCCSc1cc(SCCCCCC)c2ccc3c(SCCCCCC)cc(SCCCCCC)c4ccc1c2c43 | 92 |
| C[C@@H]1CNC(=O)c2cc3ccc(C(F)(F)F)cc3n21 | 201 to 204 |
| CCc1c(Sc2cc(C)cc(C)c2)n(CC2=CCC(CO)C2)c(=O)[nH]c1=O (stereo unspecified) | 57 to 60 |
